The text below walks through data of patent publication US20030180260A1, “Immunotherapy or treating bacterial or viral infection at mucosal surfaces with probiotics, and compositions therefor” (priority 2000, published 2003).

In one assay the test system is IFN-γ. In words: IFN-γ in saliva and cervical lymph node cells after C. albicans challenge (ELISA). It is filed as in vivo, DBA/2 mice. The procedure:
A further study on responses to Candida albicans infection was conducted in the model described in Example 3.
Candida antigen was prepared from freshly cultured Candida albicans by sonication in a MSE Soniprep. The sonicate was centrifuged for 10 min at 2000 g after which time the supernatant was collected and dialysed against PBS. After protein estimation, the solution was filtered sterilised and stored at −20° C. until needed.
A single cell suspension of cervical lymph node (CLN) cells was prepared by teasing lymph node tissue through a sieve. The cells were collected in RPMI 1640 medium supplemented with 10% foetal calf serum (FCS), washed twice by centrifugation and cultured at 4×10^6 cells per well in the presence of 2.5 μg/mL of Candida antigen in a 24-well plate for 3 days.
The culture supernatants were collected and assayed for IL-4, IL-12 and IFN-γ by ELISA using matched antibody pairs and recombinant cytokines as standards (Pharmingen, San Diego, Calif.). The sensitivity of the cytokine ELISA was […] and the results were expressed in net amounts from which the background was subtracted.
Samples of saliva were obtained according to the procedure described in example 2.
(ELISA stands for enzyme-linked immunosorbent assay.)

The subject of another assay is NO. As to the kind of experiment: Nitric oxide (NO) secretion in saliva after Candida albicans challenge (Griess reaction). Type of assay: in vivo, DBA/2 mice. The settings on record: oral 5×10^9 CFU, FIG. 2. As for the experimental part:
DBA/2 mice (n=3 to 5 per group) were fed Lactobacillus acidophilus and then challenged with Candida albicans as described in Example 3 below. At various times following oral infusion, saliva was collected after injection with pilocarpine to stimulate saliva flow. The concentration of NO in saliva was determined by the Griess reaction according to the method by Gree et al (1982) Anal. Biochem 126:131-138. DBA/2 mice […] male mice (n=3-5 per group) were fed intragastrically every 2 days for 2 weeks with 5×10^9 L. acidophilus in 0.2 mL PBS. One day after the last feed mice were challenged with 10^8 Candida albicans blastospores by swabbing the oral cavity using a fine-tip sterile swab. At various days after infection the number of C. albicans in the oral mucosa was determined. The oral cavity (cheek, tongue and soft palate) was completely swabbed using a fine-tipped cotton swab. The cotton swab was placed in 1 mL PBS and the yeast cells were resuspended by mixing in a vortex mixer before culture of serial 10-fold dilutions on Sabourand dextrose agar supplemented with chloramphenicol at 37° C. The results were expressed as CFU/mL (FIG. 5)
For orientation: Griess reagent forms a coloured azo dye with nitrite.

On to “Lactobacillus acidophilus [L. acidophilus]”, for which the “onset of IFN-γ response after C. albicans challenge” value with IFN-γ (fed mice challenged with C. albicans, controls no detectable IFN-γ until day 6) is “early response (day 2)”. Further, the “IFN-γ response in uninfected mice” value in the assay with IFN-γ (fed mice, no C. albicans challenge, FIGS. 6 and 7) is “no IFN-γ response”. In the assay on IFN-γ (still seen in nodes at day 15 and in saliva at day 8), the “duration of IFN-γ response after C. albicans challenge versus controls not fed” value was “more sustained IFN-γ response”. Further, in the assay on NO (early after C. albicans challenge), the “secretion of NO into saliva, early after challenge” value is “increased”. Moreover, the “secretion of NO into saliva, later stage” value in the assay on NO (later stage after C. albicans challenge) was “significantly reduced”.
